The source of these data is patent publication US20230265151A1, “GIP/GLP1 CO-AGONIST COMPOUNDS” (priority 2020, published 2023).

Like-named read-outs stand apart in the source and are kept apart here. *1 amine or outer side, *2 acyl side, *3 side chain or, on linkers, in order; H or OH if unused. Where a SMILES comes first, the peptide text is derived from it. Side-chain parts run from the residue outwards. [ ]: non-standard residue; d: D form. The star is where a group is joined. Decanoyl(10-(4-HOOC-PhO)) = O=C(O)c1ccc(OCCCCCCCCCC(=O)*)cc1; αMePhe(2-F) = C[C@](N)(Cc1ccccc1F)C(=O)O; γGlu = O=C(O)[C@H](CCC(=O)[*:2])N[*:1]; C14 diacid = O=C(O)CCCCCCCCCCCCC(=O)*; αMeY = C[C@](N)(Cc1ccc(O)cc1)C(=O)O; αMeL = CC(C)C[C@](C)(N)C(=O)O; Orn = NCCC[C@H](N)C(=O)O; AEEA = NCCOCCOCC(=O)O; Aib = CC(C)(N)C(=O)O

One may read the EC50 as the concentration needed to bring the measured effect to its halfway point. As a reminder, the Emax is the size of the effect at its maximum, as opposed to the concentration needed.

What all share (format): cell-based
Test [1] deals with T1, hGCGR (Homo sapiens, UniProt P47871).
T1 construct: expressed in transfected cells
T1 sequence (P47871 26-477): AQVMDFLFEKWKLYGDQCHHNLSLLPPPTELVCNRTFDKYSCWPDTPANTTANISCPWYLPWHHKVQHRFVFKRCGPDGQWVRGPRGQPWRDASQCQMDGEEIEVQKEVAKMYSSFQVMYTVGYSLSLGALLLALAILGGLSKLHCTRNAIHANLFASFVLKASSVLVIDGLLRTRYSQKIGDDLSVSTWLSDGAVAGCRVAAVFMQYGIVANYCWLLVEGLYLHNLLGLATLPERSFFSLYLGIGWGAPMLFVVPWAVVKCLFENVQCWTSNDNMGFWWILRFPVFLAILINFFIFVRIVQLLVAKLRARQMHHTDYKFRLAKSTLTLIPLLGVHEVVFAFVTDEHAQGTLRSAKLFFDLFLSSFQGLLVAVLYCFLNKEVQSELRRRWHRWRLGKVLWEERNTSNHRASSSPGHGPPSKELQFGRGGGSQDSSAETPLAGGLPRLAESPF
Put plainly: Functional cAMP formation (HTRF) in HEK-293 clonal cells expressing hGCGR, 0.1% bovine casein, without or with 1.0% human serum albumin. The gist of the method: (§1)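 Cells were stimulated with peptide for 30 min at 37° C, then lysed in buffer carrying cAMP-d2 and anti-cAMP Eu3+-cryptate for a competitive HTRF read after at least 60 min at room temperature. The 665/620 nm ratio was converted to nM cAMP against a standard curve.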

The target in test [2] is T2, hGIPR (Homo sapiens, UniProt P48546).
T2 construct: expressed in transfected cells
T2 sequence (P48546 22-466): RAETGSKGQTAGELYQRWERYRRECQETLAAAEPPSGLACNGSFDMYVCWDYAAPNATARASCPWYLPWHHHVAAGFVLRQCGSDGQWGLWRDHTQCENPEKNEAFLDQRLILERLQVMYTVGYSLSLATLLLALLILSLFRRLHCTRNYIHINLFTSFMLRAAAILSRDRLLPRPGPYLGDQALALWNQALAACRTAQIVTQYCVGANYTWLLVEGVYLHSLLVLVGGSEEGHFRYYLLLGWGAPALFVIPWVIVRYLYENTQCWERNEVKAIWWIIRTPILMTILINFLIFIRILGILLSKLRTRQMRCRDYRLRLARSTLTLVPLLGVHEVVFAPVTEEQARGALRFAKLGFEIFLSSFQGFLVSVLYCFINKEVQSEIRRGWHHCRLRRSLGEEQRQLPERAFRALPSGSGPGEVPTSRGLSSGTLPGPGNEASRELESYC
Nature of the test: Functional cAMP formation (HTRF) in HEK-293 clonal cells expressing hGIPR, 0.1% bovine casein, without or with 1.0% human serum albumin. To be noted: for EC50: geometric mean. The gist of the method:
as §1
On the technique in general: Changes in cAMP serve as a functional read-out for many G protein-coupled receptors.

The target in test [3] is hGLP-1R (Homo sapiens, UniProt P43220). Nature of the test: Functional cAMP formation (HTRF) in HEK-293 clonal cells expressing hGLP-1R, 0.1% bovine casein, without or with 1.0% human serum albumin. Details: expressed in transfected cells. Particulars: for Emax: percent of maximal response to GLP-1(7-36)NH2; for EC50: cAMP, 0.1% bovine casein (no human serum albumin), geometric mean. Summed up:
as §1

Chain of hGLP-1R (P43220 24-463): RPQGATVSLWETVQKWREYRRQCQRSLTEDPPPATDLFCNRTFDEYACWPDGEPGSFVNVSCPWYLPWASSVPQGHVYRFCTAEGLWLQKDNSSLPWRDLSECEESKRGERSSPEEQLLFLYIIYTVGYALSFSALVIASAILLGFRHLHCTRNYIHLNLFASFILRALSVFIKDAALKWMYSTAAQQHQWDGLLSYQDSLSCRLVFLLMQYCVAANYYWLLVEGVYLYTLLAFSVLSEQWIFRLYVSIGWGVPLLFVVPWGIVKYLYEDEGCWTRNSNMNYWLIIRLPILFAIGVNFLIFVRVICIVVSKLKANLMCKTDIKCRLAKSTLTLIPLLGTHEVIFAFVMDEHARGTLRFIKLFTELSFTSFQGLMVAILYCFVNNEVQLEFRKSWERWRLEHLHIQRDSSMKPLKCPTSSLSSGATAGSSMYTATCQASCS

`CC[C@H](C)[C@H](NC(=O)[C@H](CCCN)NC(=O)[C@H](CC(=O)O)NC(=O)[C@H](CC(C)C)NC(=O)[C@](C)(CC(C)C)NC(=O)[C@@H](NC(=O)C(C)(C)NC(=O)[C@@H](NC(=O)[C@H](CC(=O)O)NC(=O)[C@H](CO)NC(=O)[C@@H](NC(=O)[C@](C)(Cc1ccccc1F)NC(=O)[C@@H](NC(=O)CNC(=O)[C@H](CCC(=O)O)NC(=O)C(C)(C)NC(=O)[C@@H](N)Cc1ccc(O)cc1)[C@@H](C)O)[C@@H](C)O)C(C)C)[C@@H](C)CC)C(=O)N[C@@H](C)C(=O)N[C@@H](CCC(N)=O)C(=O)NC(C)(C)C(=O)N[C@@H](CCC(=O)O)C(=O)N[C@@H](Cc1ccccc1)C(=O)N[C@H](C(=O)N[C@@H](CCCCNC(=O)COCCOCCNC(=O)CC[C@H](NC(=O)CCCCCCCCCCCCC(=O)O)C(=O)O)C(=O)N[C@@](C)(Cc1ccc(O)cc1)C(=O)N[C@@H](CC(C)C)C(=O)N[C@H](C(=O)N[C@@H](CCCCNC(=O)COCCOCCNC(=O)CC[C@H](NC(=O)CCCCCCCCCCCCC(=O)O)C(=O)O)C(=O)NCC(=O)NCC(=O)N1CCC[C@H]1C(=O)N[C@@H](CO)C(=O)N[C@@H](CO)C(=O)NCC(=O)N[C@@H](C)C(=O)N1CCC[C@H]1C(=O)N1CCC[C@H]1C(=O)N1CCC[C@H]1C(=O)N[C@@H](CO)C(N)=O)[C@@H](C)CC)[C@@H](C)CC` [Example 400]: the EC50 in test [1] (cAMP, 37° C., 0.1% bovine casein (no human serum albumin), geometric mean, read-out: hGCGR EC50, nM (SEM, n)) is more than 9950 nM; in test [1] (cAMP, 37° C., 0.1% bovine casein and 1.0% human serum albumin, geometric mean (SEM, n), read-out: hGCGR EC50, nM (SEM, n)), more than 9950 nM; in test [2] (cAMP, 37° C., 0.1% bovine casein (no human serum albumin), read-out: hGIPR EC50, nM (SEM, n)) it was 0.0821 nM; in test [3] (37° C., read-out: hGLP-1R EC50, nM (SEM, n)), 0.708 nM. Further, the maximal effect (Emax) in test [2] (HEK293, cAMP, 37° C., 0.1% bovine casein and 1.0% human serum albumin, percent of maximal response to GIP(1-42)NH2, read-out: hGIPR Emax, % ± SEM) stood at 83.2%; in test [2] (HEK293, cAMP, 37° C., 0.1% bovine casein, percent of maximal response to GIP(1-42)NH2, arithmetic mean, read-out: hGIPR Emax, % ± SEM) it was 98.1%; in test [3] (HEK293, cAMP, 37° C., 0.1% bovine casein and 1.0% human serum albumin, read-out: hGLP-1R Emax, % ± SEM), 109%.
Turning to `CC[C@H](C)[C@H](NC(=O)[C@H](CC(C)C)NC(=O)[C@](C)(Cc1ccc(O)cc1)NC(=O)[C@@H](CCC(=O)O)NC(=O)[C@@H](NC(=O)[C@H](Cc1ccccc1)NC(=O)[C@H](CCC(=O)O)NC(=O)C(C)(C)NC(=O)[C@H](CCC(N)=O)NC(=O)[C@H](C)NC(=O)[C@H](CCCCNC(=O)COCCOCCNC(=O)COCCOCCNC(=O)CC[C@H](NC(=O)CCCCCCCCCCCCC(=O)O)C(=O)O)NC(=O)[C@H](CCCN)NC(=O)[C@H](CC(=O)O)NC(=O)[C@H](CC(C)C)NC(=O)[C@](C)(CC(C)C)NC(=O)[C@@H](NC(=O)[C@H](CO)NC(=O)[C@H](Cc1ccc(OC)cc1)NC(=O)[C@H](CC(=O)O)NC(=O)[C@H](CO)NC(=O)[C@@H](NC(=O)[C@](C)(Cc1ccccc1F)NC(=O)[C@@H](NC(=O)CNC(=O)[C@H](CCC(=O)O)NC(=O)C(C)(C)NC(=O)[C@@H](N)Cc1ccc(O)cc1)[C@@H](C)O)[C@@H](C)O)[C@@H](C)CC)[C@@H](C)CC)C(=O)N[C@@H](CCC(=O)O)C(=O)NCC(=O)NCC(=O)N[C@@H](CCCCNC(=O)COCCOCCNC(=O)COCCOCCNC(=O)CC[C@H](NC(=O)CCCCCCCCCCCCC(=O)O)C(=O)O)C(=O)N[C@@H](CO)C(=O)N[C@@H](CO)C(=O)NCC(=O)N[C@@H](C)C(=O)N1CCC[C@H]1C(=O)N1CCC[C@H]1C(=O)N1CCC[C@H]1C(=O)N[C@@H](CO)C(N)=O` [Example 58] (H-Y[Aib]EGT[αMePhe(2-F)]TSDY(Me)SI[αMeL]LD[Orn]K([AEEA-AEEA-γGlu-C14 diacid])AQ[Aib]EFI[dE][αMeY]LIEGGK([AEEA-AEEA-γGlu-C14 diacid])SSGAPPPS-NH2), the EC50 in test [1] (0.1% bovine casein and 1.0% human serum albumin, 37° C., geometric mean, read-out: hGCGR EC50, nM (SEM, n)) was more than 9950 nM; in test [1] (cAMP, incubated at 37° C., 0.1% bovine casein (no human serum albumin), geometric mean, read-out: hGCGR EC50, nM (SEM, n)) it was more than 9950 nM; in test [2] (0.1% bovine casein and 1.0% human serum albumin, 37° C., read-out: hGIPR EC50, nM (SEM, n)), 1.12 nM; in test [2] (cAMP, incubated at 37° C., 0.1% bovine casein (no human serum albumin), read-out: hGIPR EC50, nM (SEM, n)) it was 0.0158 nM; in test [3] (incubated at 37° C., read-out: hGLP-1R EC50, nM (SEM, n)) it was 0.194 nM. Also, the Emax was 92.2 ± 7.4% in test [2] (HEK293, 0.1% bovine casein and 1.0% human serum albumin, 37° C., percent of maximal response to GIP(1-42)NH2, read-out: hGIPR Emax, % ± SEM); 89.2 ± 5.96% in test [2] (HEK293, percent of maximal response to GIP(1-42)NH2, 37° C., 0.1% bovine casein, arithmetic mean, read-out: hGIPR Emax, % ± SEM).
For the compound `CC[C@H](C)[C@H](NC(=O)[C@H](CC(C)C)NC(=O)[C@](C)(Cc1ccc(O)cc1)NC(=O)[C@@H](CCC(=O)O)NC(=O)[C@@H](NC(=O)[C@H](Cc1ccccc1)NC(=O)[C@H](CCCCNC(=O)COCCOCCNC(=O)COCCOCCNC(=O)CC[C@H](NC(=O)CCCCCCCCCOc1ccc(C(=O)O)cc1)C(=O)O)NC(=O)C(C)(C)NC(=O)[C@H](CCC(N)=O)NC(=O)[C@H](C)NC(=O)[C@H](CCCCNC(=O)COCCOCCNC(=O)COCCOCCNC(=O)CC[C@H](NC(=O)CCCCCCCCCOc1ccc(C(=O)O)cc1)C(=O)O)NC(=O)[C@H](CCCN)NC(=O)[C@H](CC(=O)O)NC(=O)[C@H](CC(C)C)NC(=O)[C@](C)(CC(C)C)NC(=O)[C@@H](NC(=O)C(C)(C)NC(=O)[C@H](Cc1ccc(O)cc1)NC(=O)[C@H](CC(=O)O)NC(=O)[C@H](CO)NC(=O)[C@@H](NC(=O)[C@](C)(Cc1ccccc1F)NC(=O)[C@@H](NC(=O)CNC(=O)[C@H](CCC(=O)O)NC(=O)C(C)(C)NC(=O)[C@@H](N)Cc1ccc(O)cc1)[C@@H](C)O)[C@@H](C)O)[C@@H](C)CC)[C@@H](C)CC)C(=O)N[C@@H](CCCN)C(=O)NCC(=O)NCC(=O)N1CCC[C@H]1C(=O)N[C@@H](CO)C(=O)N[C@@H](CO)C(=O)NCC(=O)N[C@@H](C)C(=O)N1CCC[C@H]1C(=O)N1CCC[C@H]1C(=O)N1CCC[C@H]1C(=O)N[C@@H](CO)C(N)=O` [Example 409] (H-Y[Aib]EGT[αMePhe(2-F)]TSDY[Aib]I[αMeL]LD[Orn]K([AEEA-AEEA-γGlu-Decanoyl(10-(4-HOOC-PhO))])AQ[Aib]K([AEEA-AEEA-γGlu-Decanoyl(10-(4-HOOC-PhO))])FI[dE][αMeY]LI[Orn]GGPSSGAPPPS-NH2; N-terminus assumed), the EC50 in test [1] (hGCGR EC50, nM (SEM, n), cAMP, 37° C., 0.1% bovine casein (no human serum albumin), geometric mean) is more than 9950 nM; in test [1] (hGCGR EC50, nM (SEM, n), cAMP, 37° C., 0.1% bovine casein and 1.0% human serum albumin, geometric mean (SEM, n)), more than 9950 nM; in test [2] (hGIPR EC50, nM (SEM, n), cAMP, 37° C., 0.1% bovine casein (no human serum albumin)), 0.00928 nM; in test [3] (hGLP-1R EC50, nM (SEM, n), 37° C.), 0.188 nM. In addition, the Emax in test [2] (HEK293, read-out: hGIPR Emax, % ± SEM, cAMP, 37° C., 0.1% bovine casein and 1.0% human serum albumin, percent of maximal response to GIP(1-42)NH2) was 84%; in test [3] (HEK293, read-out: hGLP-1R Emax, % ± SEM, cAMP, 37° C., 0.1% bovine casein and 1.0% human serum albumin) it was 97.7%.
